Test results from patent US20070270418A1, “Inhibitors of P38 and Methods of Using the Same” (priority 2003, published 2007).
Read-outs that look alike come from different tables or passages of the source.

Experiments:
[1] = test system: TNFα release from THP-1 cells; test: TNFα release from LPS-stimulated THP-1 cells; format: cell-based; conditions: LPS 10 μg/ml, 18 hours, read-out: TNFα (THP-1) IC50
Method in brief: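 THP-1 cells (10^6 cells/ml on resuspension) preincubated with compound 30 min at 37°C, 5% CO2, final DMSO ≤0.5%, then stimulated with 10 μg/ml LPS for 18 h (TNFα). Supernatants collected for TNFα analysis.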

[2] = target: T1, p38α (Homo sapiens, UniProt Q16539); test: p38 MAP Kinase assay, ATF2 phosphorylation (ELISA); format: biochemical; conditions: 40 μM ATP
T1 construct: p38 MAP Kinases are recombinant human full-length proteins with an amino-terminal GST fusion; GST (N); purchased Upstate (Charlottesville, Va.); host or cells: E. coli
Method in brief: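 Recombinant full-length GST-tagged human p38α (6 ng) pre-incubated 15 min at room temperature with compound, then reacted 30 min at 37° C with 40 μM ATP and 1.25 μM GST-ATF2 (aa 19-96) in HEPES pH 7.5/MgCl2 buffer. EDTA stop; ATF2 Thr69 phosphorylation measured by anti-phospho-ATF2 ELISA at 450 nm.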

T1 sequence (Q16539 whole entry, the tested form may be a part): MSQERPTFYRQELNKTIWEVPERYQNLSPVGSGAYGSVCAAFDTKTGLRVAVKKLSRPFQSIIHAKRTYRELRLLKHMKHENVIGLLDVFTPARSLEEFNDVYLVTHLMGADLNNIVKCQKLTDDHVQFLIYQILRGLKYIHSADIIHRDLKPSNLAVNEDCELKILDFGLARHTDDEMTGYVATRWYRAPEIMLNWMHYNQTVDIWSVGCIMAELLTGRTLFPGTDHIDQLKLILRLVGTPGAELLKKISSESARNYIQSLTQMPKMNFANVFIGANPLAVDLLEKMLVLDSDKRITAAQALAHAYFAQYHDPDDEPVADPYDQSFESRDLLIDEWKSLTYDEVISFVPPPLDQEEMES

Structure (SMILES) | IC50 ([1]; Homo sapiens, THP-1, 18 h) [nM] | IC50 [2] [nM] | melting point [°C] | IC50 [1] [nM]
CS(=O)(=O)c1nccc(-c2c(-c3ccc(F)cc3)nc3sccn23)n1 [CXL, 6-(4-fluorophenyl)-5-(2-methanesulfonyl-pyrimidin-4-yl)-imidazo[2,1-b]thiazole] | 4860 | 966 | 197 to 198 | –
CSc1nccc(-c2c(-c3ccc(F)cc3)nc3occn23)n1 [X, 6-(4-fluorophenyl)-5-[2-(methylsulfanyl)pyrimidin-4-yl]imidazo[2,1-b][1,3]oxazole] | – | 1130 | 144 to 145 | –
Fc1ccc(CNc2nccc(-c3c(-c4ccc(F)cc4)nc4occn34)n2)cc1 [XCIV] | 394 | 90.9 | – | –
Fc1ccc(-c2nc3occn3c2-c2ccnc(N3CCOCC3)n2)cc1 [XCIX] | 854 | 71.1 | – | –
NCCCNc1nccc(-c2c(-c3ccc(F)cc3)nc3occn23)n1 [XCI] | 188 | 49.9 | – | –
OC1CCN(c2nccc(-c3c(-c4ccc(F)cc4)nc4occn34)n2)CC1 [XCVIII] | 951 | 134 | – | –
CC(C)[C@@H](CO)Nc1nccc(-c2c(-c3ccc(F)cc3)nc3occn23)n1 [XII] | 11.8 | 16.7 | – | –
OCCNc1nccc(-c2c(-c3ccc(F)cc3)nc3occn23)n1 [XIV] | 338 | 41.6 | – | –
N#CCCNc1nccc(-c2c(-c3ccc(F)cc3)nc3occn23)n1 [XIX] | 1140 | 100 | – | –
Fc1ccc(-c2nc3occn3c2-c2ccnc(NC[C@@H]3CCCO3)n2)cc1 [XLII] | 11.2 | 80.8 | – | –
Fc1ccc(-c2nc3occn3c2-c2ccnc(NCc3ccccn3)n2)cc1 [XLVIII] | 96.8 | 74 | – | –
C[C@@H](CO)CCNc1nccc(-c2c(-c3ccc(F)cc3)nc3occn23)n1 [XLVII] | 13.7 | 31.4 | – | –
OCCCCCNc1nccc(-c2c(-c3ccc(F)cc3)nc3occn23)n1 [XLVI] | 17.2 | 23.1 | – | –
OCCOCCNc1nccc(-c2c(-c3ccc(F)cc3)nc3occn23)n1 [XL] | 93 | 79 | – | –
CCC(O)CNc1nccc(-c2c(-c3ccc(F)cc3)nc3occn23)n1 (centres unmarked) [XVII] | 15.9 | 15.7 | – | –
CC(O)CNc1nccc(-c2c(-c3ccc(F)cc3)nc3occn23)n1 (centres unmarked) [XVI] | – | 37.1 | – | 19.3
CC(O)CNc1nccc(-c2c(-c3ccc(F)cc3)nc3occn23)n1 (centres unmarked) [XV] | 18.8 | 30.7 | – | –
CC[C@H](CO)Nc1nccc(-c2c(-c3ccc(F)cc3)nc3occn23)n1 [XXVII] | 6.08 | 20.5 | – | –
CN(C)CCNc1nccc(-c2c(-c3ccc(F)cc3)nc3occn23)n1 [XXVI] | 100 | 480 | – | –
OCCCNc1nccc(-c2c(-c3ccc(F)cc3)nc3occn23)n1 [XXV] | 466 | 21.5 | – | –
OCC(O)CNc1nccc(-c2c(-c3ccc(F)cc3)nc3occn23)n1 (centres unmarked) [XXXIII] | 57 | 143 | – | –
COC[C@H](C)Nc1nccc(-c2c(-c3ccc(F)cc3)nc3occn23)n1 [XXXII] | 4.89 | 19 | – | –
CN(C)CCCNc1nccc(-c2c(-c3ccc(F)cc3)nc3occn23)n1 [XXXVIII] | 168 | 343 | – | –
Cc1ccc(CNc2nccc(-c3c(-c4ccc(F)cc4)nc4occn34)n2)o1 [XXXVI] | 76.6 | 103 | – | –
CC(CO)CCNc1nccc(-c2c(-c3ccc(F)cc3)nc3occn23)n1 (centres unmarked) [XXXV] | 17.9 | 17.9 | – | –
CC(CO)Nc1nccc(-c2c(-c3ccc(F)cc3)nc3occn23)n1 (centres unmarked) [XXX] | – | 34.8 | – | 12.3
COCCNc1nccc(-c2c(-c3ccc(F)cc3)nc3occn23)n1 [XX] | 65 | 24.3 | – | –

Now those with a lower IC50 [2], led by results:

IC50 ([1]; Homo sapiens, THP-1, 18 h) [nM] | IC50 [2] [nM] | melting point [°C] | IC50 [1] [nM] | Structure (SMILES)
1.78 | 15 | – | – | Fc1ccc(-c2nc3occn3c2-c2ccnc(NC3CCC3)n2)cc1 [XXIV]
9.08 | 11.9 | – | – | C=CCNc1nccc(-c2c(-c3ccc(F)cc3)nc3occn23)n1 [XXIII]
11.2 | 11.7 | – | – | Fc1ccc(-c2nc3occn3c2-c2ccnc(NC[C@H]3CCCO3)n2)cc1 [XLV]
34.5 | 10.5 | – | – | CCSCCNc1nccc(-c2c(-c3ccc(F)cc3)nc3occn23)n1 [XLIV]
13.9 | 6.86 | – | – | C[C@H](O)CNc1nccc(-c2c(-c3ccc(F)cc3)nc3occn23)n1 [XXI]
21.5 | 5.95 | – | – | Fc1ccc(-c2nc3occn3c2-c2ccnc(NCc3ccco3)n2)cc1 [XXXVII]
20 | 5.87 | – | – | Fc1ccc(-c2nc3occn3c2-c2ccnc(NCc3cccs3)n2)cc1 [XLIX]
5.88 | 5.25 | 149 | – | CC(C)(CO)CNc1nccc(-c2c(-c3ccc(F)cc3)nc3occn23)n1 [XXXIX, 3-({4-[6-(4-Fluorophenyl)imidazo[2,1-b][1,3]oxazol-5-yl]pyrimidin-2-yl}amino)-2,2-dimethylpropan-1-ol]
4.45 | 4.28 | – | – | Fc1ccc(-c2nc3occn3c2-c2ccnc(NCC3CC3)n2)cc1 [XXIX]
18.6 | 3.7 | – | – | CC[C@@H](CO)Nc1nccc(-c2c(-c3ccc(F)cc3)nc3occn23)n1 [XXII]
15.3 | 3.47 | – | – | CCCNc1nccc(-c2c(-c3ccc(F)cc3)nc3occn23)n1 [XXVIII]
18 | 3.42 | – | – | CCNc1nccc(-c2c(-c3ccc(F)cc3)nc3occn23)n1 [XCV]
19.7 | 2.19 | – | – | CCCC(CO)Nc1nccc(-c2c(-c3ccc(F)cc3)nc3occn23)n1 (centres unmarked) [XXXIV]
– | 1.75 | – | 49.2 | CC(CO)Nc1nccc(-c2c(-c3ccc(F)cc3)nc3occn23)n1 (centres unmarked) [XLI]
10.3 | 1.6 | – | – | COCC(C)Nc1nccc(-c2c(-c3ccc(F)cc3)nc3occn23)n1 (centres unmarked) [XXXI]
13.5 | 1.56 | – | – | CCOCCCNc1nccc(-c2c(-c3ccc(F)cc3)nc3occn23)n1 [XLIII]
12.1 | 1.41 | – | – | COCCCNc1nccc(-c2c(-c3ccc(F)cc3)nc3occn23)n1 [XCVII]
11.2 | 0.44 | – | – | Fc1ccc(-c2nc3occn3c2-c2ccnc(NC3CC3)n2)cc1 [XVIII]
